Measured values as given in patent publication US20100004267A1, “LIQUID PREPARATION” (ASUBIO PHARMA CO., LTD., priority 2006, published 2010).

Assay: Examination on prevention of light decomposition (Test example 5)
Assay type: physicochemical
Experimental: To 800 mL of purified water, 100 g of Captisol (available from CyDex Inc.) serving as a solubilizing agent, 1 g of sodium bisulfite (available from JUNSEI CHEMICAL) serving as an antioxidant, and 5 g of SUN N8075 were sequentially dissolved, and the volume was adjusted to precisely 1,000 mL with purified water, and filtered under reduced pressure. Then each 20 mL of the solution was filled into a colorless ampule (Silicoat ampule, white, 20 mL capacity, available from FUJI GLASS CO., LTD.) and a brown ampule (Silicoat ampule, brown, 20 mL capacity, available from FUJI GLASS CO., LTD.), and then the ampule was sealed. Using autoclave (FLC-M09S30WZ, available from SAKURA SEIKI Co., Ltd.), autoclave sterilization was conducted in a setting condition: 121° C./24 minutes.
A sample of each of these ampules was stored under D65 lamp 2,000 Lux, and irradiated with 40, 80, 120×10^4 Lux, and then SUN N8075 related substances were measured with a HPLC device. The related substances were calculated as a peak ratio of the total related substances, relative to SUN N8075 peak area.
To 150 mL of purified water, a predetermined amount (none, 0.05 g, 0.1 g and 0.2 g) of sodium bisulfite (available from JUNSEI CHEMICAL) serving as an antioxidant, and 1 g of SUN N8075 were sequentially dissolved, and the volume was adjusted to precisely 200 mL with purified water. After filtering under reduced pressure, the solution was bubbled with nitrogen gas for 5 minutes. Then 20 mL of the solution was immediately filled into a brown ampule (Silicoat ampule, brown, 20 mL capacity, available from FUJI GLASS CO., LTD.) having subjected to nitrogen gas replacement, and then the ampule was sealed. Using autoclave (FLC-M09S30WZ, available from SAKURA SEIKI Co., Ltd.), autoclave sterilization was conducted in a setting condition: 121° C./24 minutes.
A sample of each of these ampules was stored under D65 lamp 2,000 Lux, and irradiated with 40×10^4 Lux, and then SUN N8075 related substances were measured with a HPLC device. The related substances were calculated as a peak ratio of the total related substances, relative to SUN N8075 peak area.
As a control sample, 1 g of SUN N8075 was dissolved into 150 mL of purified water, and the volume was adjusted precisely to 200 mL with purified water. Then the solution was filtered under reduced pressure, and bubbled with nitrogen gas for 5 minutes. Then 20 mL of the solution was immediately filled into a brown ampule (Silicoat ampule, brown, 20 mL capacity, available from FUJI GLASS CO., LTD.) replaced with nitrogen gas, and then the ampule was sealed.
This was prepared as a control sample at the start of the test, and SUN N8075 related substances were measured in the similar manner.

[1] = Control: without sodium bisulfite, brown ampule, Start
[2] = N2 gas replacement, sodium bisulfite 0.05%, brown ampule, irradiation 40 ×10^4 LUX
[3] = N2 gas replacement, sodium bisulfite 0.1%, brown ampule, irradiation 40 ×10^4 LUX
[4] = N2 gas replacement, sodium bisulfite […], brown ampule, irradiation 40 ×10^4 LUX
[5] = N2 gas replacement, without sodium bisulfite, brown ampule, irradiation 40 ×10^4 LUX
[6] = without N2 gas replacement, sodium bisulfite 0.1%, Captisol 10%, brown ampule, irradiation 40 ×10^4 LUX
[7] = without N2 gas replacement, sodium bisulfite 0.1%, Captisol 10%, brown ampule, irradiation 80 ×10^4 LUX
[8] = without N2 gas replacement, sodium bisulfite 0.1%, Captisol 10%, brown ampule, irradiation 120 ×10^4 LUX
[9] = without N2 gas replacement, sodium bisulfite 0.1%, Captisol 10%, colorless ampule, irradiation 40 ×10^4 LUX
[10] = without N2 gas replacement, sodium bisulfite 0.1%, Captisol 10%, colorless ampule, irradiation 80 ×10^4 LUX
[11] = without N2 gas replacement, sodium bisulfite 0.1%, Captisol 10%, colorless ampule, irradiation 120 ×10^4 LUX

Question: Which results are given for Cc1cc(OC[C@@H](O)CN2CCN(c3ccc(Cc4ccc(F)cc4)cc3)CC2)c(C)c(C)c1N [SUN N8075, (2S)-1-(4-amino-2,3,5-trimethylphenoxy)-3-{4-[4-(4-fluorobenzyl)phenyl]-1-piperazinyl}-2-propanol dimethane sulfonate]?
Answer: Related Substance Peak ratio [1]: 0.629; SUN N8075 Peak ratio [1]: 99.37; Related Substance Peak ratio [2]: 0.608; SUN N8075 Peak ratio [2]: 99.39; Related Substance Peak ratio [3]: 0.567; SUN N8075 Peak ratio [3]: 99.43; Related Substance Peak ratio [4]: 0.581; SUN N8075 Peak ratio [4]: 99.42; Related Substance Peak ratio [5]: 0.967; SUN N8075 Peak ratio [5]: 99.03; Related Substance Peak ratio [6]: 1.140; SUN N8075 Peak ratio [6]: 98.86; Related Substance Peak ratio [7]: 1.301; SUN N8075 Peak ratio [7]: 98.70; Related Substance Peak ratio [8]: 1.750; SUN N8075 Peak ratio [8]: 98.25; Related Substance Peak ratio [9]: 4.552; SUN N8075 Peak ratio [9]: 95.45; Related Substance Peak ratio [10]: 4.953; SUN N8075 Peak ratio [10]: 95.05; Related Substance Peak ratio [11]: 5.987; SUN N8075 Peak ratio [11]: 94.01
